In patent publication US10526327B2, “Histone demethylase inhibitors” (CELGENE QUANTICEL RESEARCH, INC., priority 2013, dated 2020):

How the values were obtained:
Jarid1B = biological target: T1, Jarid1B (Homo sapiens, UniProt Q9UGL1); assay: Jarid1B in vitro enzyme inhibition assay (TR-FRET); assay type: biochemical
T1 construct: purchased BPS Bioscience or custom made by MolecularThroughput 50121
T1 sequence (Q9UGL1 2-751): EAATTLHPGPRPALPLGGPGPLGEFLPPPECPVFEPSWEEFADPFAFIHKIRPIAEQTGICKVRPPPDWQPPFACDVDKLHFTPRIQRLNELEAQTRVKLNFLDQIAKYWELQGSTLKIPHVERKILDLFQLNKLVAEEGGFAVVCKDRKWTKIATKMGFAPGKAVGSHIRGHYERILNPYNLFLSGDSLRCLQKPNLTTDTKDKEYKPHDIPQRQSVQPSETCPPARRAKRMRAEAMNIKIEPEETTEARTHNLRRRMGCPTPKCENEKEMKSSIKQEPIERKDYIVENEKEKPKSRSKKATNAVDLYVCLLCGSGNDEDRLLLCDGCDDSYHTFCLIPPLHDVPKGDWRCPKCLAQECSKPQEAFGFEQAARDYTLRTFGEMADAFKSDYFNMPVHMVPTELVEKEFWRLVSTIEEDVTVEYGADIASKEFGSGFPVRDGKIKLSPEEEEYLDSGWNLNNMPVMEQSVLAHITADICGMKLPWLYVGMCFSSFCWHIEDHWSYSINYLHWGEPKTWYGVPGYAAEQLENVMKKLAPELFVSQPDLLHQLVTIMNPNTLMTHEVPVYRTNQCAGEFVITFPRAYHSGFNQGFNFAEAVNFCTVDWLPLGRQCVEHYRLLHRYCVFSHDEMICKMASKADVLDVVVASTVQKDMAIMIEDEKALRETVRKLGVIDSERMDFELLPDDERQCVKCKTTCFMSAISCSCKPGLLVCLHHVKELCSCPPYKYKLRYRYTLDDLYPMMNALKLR
How it was run: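 TR-FRET read-out of demethylated product (Eu-anti-H3K4me1-2, streptavidin-APC) after EDTA quench; ratio 665/615 fitted to IC50. Reaction: 30 min at RT, 0.8 nM baculovirus Jarid1B residues 2-751, 2 μM α-ketoglutarate, 300 nM H3K4me3-biotin peptide, pH 7.3 buffer with Fe(II) and ascorbate.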

JMJD2C = biological target: T2, JMJD2C (Homo sapiens, UniProt Q9H3R0); assay: JMJD2C in vitro enzyme inhibition assay (TR-FRET); assay type: biochemical
T2 construct: purchased BPS Bioscience 50105
T2 sequence (Q9H3R0 2-372): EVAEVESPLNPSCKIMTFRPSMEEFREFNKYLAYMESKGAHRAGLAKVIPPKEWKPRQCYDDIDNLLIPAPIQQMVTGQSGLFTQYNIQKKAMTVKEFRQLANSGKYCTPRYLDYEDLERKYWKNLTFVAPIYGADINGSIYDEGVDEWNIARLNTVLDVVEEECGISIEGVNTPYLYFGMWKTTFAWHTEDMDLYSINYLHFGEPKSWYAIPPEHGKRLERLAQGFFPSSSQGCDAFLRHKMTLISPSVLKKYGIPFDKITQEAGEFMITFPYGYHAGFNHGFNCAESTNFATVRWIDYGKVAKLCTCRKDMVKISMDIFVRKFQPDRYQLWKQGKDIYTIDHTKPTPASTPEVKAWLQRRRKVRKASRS
How it was run: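 IC50 came from 665/615 TR-FRET ratios (Eu-anti-H3K9me2 antibody, streptavidin-APC, EDTA quench) over 11-point inhibitor series. Reactions ran 30 min at room temperature: 0.3 nM JMJD2C (AA 2-372, baculovirus), 300 nM biotinylated H3K9me3 peptide, 2 μM alpha-ketoglutarate, 2 μM Fe(II), ascorbate, pH 7.3.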

IC50 (Jarid1B)	IC50 (JMJD2C)	Compound
≤ 100 nM	≤ 100 nM	O=C(CO)N1CC[C@H](n2cc(Oc3nc(O)c4ccncc4n3)cn2)C1 [Example 155, 2-hydroxy-1-[(3S)-3-[4-({4-hydroxypyrido[3,4-d]pyrimidin-2-yl}oxy)-1H-pyrazol-1-yl]pyrrolidin-1-yl]ethan-1-one]
≤ 100 nM	≤ 100 nM	O=C(C1CC1)N1CCC[C@@H](n2cc(Oc3nc(O)c4ccncc4n3)cn2)C1 [Example 156, 2-({1-[(3R)-1-cyclopropanecarbonylpiperidin-3-yl]-1H-pyrazol-4-yl}oxy)pyrido[3,4-d]pyrimidin-4-ol]
≤ 100 nM	≤ 100 nM	O=C(c1ccccc1)N1CCC[C@@H](n2cc(Oc3nc(O)c4ccncc4n3)cn2)C1 [Example 157, 2-({1-[(3R)-1-benzoylpiperidin-3-yl]-1H-pyrazol-4-yl}oxy)pyrido[3,4-d]pyrimidin-4-ol]
≤ 100 nM	≤ 100 nM	Oc1nc(Oc2cnn([C@@H]3CCCN(Cc4ccccc4)C3)c2)nc2cnccc12 [Example 158, 2-({1-[(3R)-1-benzylpiperidin-3-yl]-1H-pyrazol-4-yl}oxy)pyrido[3,4-d]pyrimidin-4-ol]
≤ 100 nM	≤ 100 nM	Oc1nc(Oc2cnn([C@@H]3CCCN(c4ccc(F)cc4)C3)c2)nc2cnccc12 [Example 159, 2-({1-[(3R)-1-(4-fluorophenyl)piperidin-3-yl]-1H-pyrazol-4-yl}oxy)pyrido[3,4-d]pyrimidin-4-ol]
≤ 100 nM	≤ 100 nM	Oc1nc(Oc2cnn([C@H]3CCCNC3)c2)nc2cnccc12 [Example 160, 2-({1-[(3S)-piperidin-3-yl]-1H-pyrazol-4-yl}oxy)pyrido[3,4-d]pyrimidin-4-ol]
≤ 100 nM	≤ 100 nM	CCS(=O)(=O)N1CCC[C@H](n2cc(Oc3nc(O)c4ccncc4n3)cn2)C1 [Example 161, 2-({1-[(3S)-1-(ethanesulfonyl)piperidin-3-yl]-1H-pyrazol-4-yl}oxy)pyrido[3,4-d]pyrimidin-4-ol]
≤ 100 nM	≤ 100 nM	O=S(=O)(C1CC1)N1CCC[C@H](n2cc(Oc3nc(O)c4ccncc4n3)cn2)C1 [Example 162, 2-({1-[(3S)-1-(cyclopropanesulfonyl)piperidin-3-yl]-1H-pyrazol-4-yl}oxy)pyrido[3,4-d]pyrimidin-4-ol]
≤ 100 nM	≤ 100 nM	O=S(=O)(c1ccccc1)N1CCC[C@H](n2cc(Oc3nc(O)c4ccncc4n3)cn2)C1 [Example 163, 2-({1-[(3S)-1-(benzenesulfonyl)piperidin-3-yl]-1H-pyrazol-4-yl}oxy)pyrido[3,4-d]pyrimidin-4-ol]
≤ 100 nM	≤ 100 nM	CC(=O)N1CCC[C@H](n2cc(Oc3nc(O)c4ccncc4n3)cn2)C1 [Example 164, 1-[(3S)-3-[4-({4-hydroxypyrido[3,4-d]pyrimidin-2-yl}oxy)-1H-pyrazol-1-yl]piperidin-1-yl]ethan-1-one]
≤ 100 nM	≤ 100 nM	O=C(C1CC1)N1CCC[C@H](n2cc(Oc3nc(O)c4ccncc4n3)cn2)C1 [Example 165, 2-({1-[(3S)-1-cyclopropanecarbonylpiperidin-3-yl]-1H-pyrazol-4-yl}oxy)pyrido[3,4-d]pyrimidin-4-ol]
≤ 100 nM	≤ 100 nM	N#CCC(=O)N1CCC[C@H](n2cc(Oc3nc(O)c4ccncc4n3)cn2)C1 [Example 166, 3-[(3S)-3-[4-({4-hydroxypyrido[3,4-d]pyrimidin-2-yl}oxy)-1H-pyrazol-1-yl]piperidin-1-yl]-3-oxopropanenitrile]
≤ 100 nM	≤ 100 nM	O=C(c1ccccc1)N1CCC[C@H](n2cc(Oc3nc(O)c4ccncc4n3)cn2)C1 [Example 167, 2-({1-[(3S)-1-benzoylpiperidin-3-yl]-1H-pyrazol-4-yl}oxy)pyrido[3,4-d]pyrimidin-4-ol]
≤ 100 nM	≤ 100 nM	Oc1nc(Oc2cnn([C@H]3CCCN(Cc4ccccc4)C3)c2)nc2cnccc12 [Example 168, 2-({1-[(3S)-1-benzylpiperidin-3-yl]-1H-pyrazol-4-yl}oxy)pyrido[3,4-d]pyrimidin-4-ol]
1000 to 10000 nM	1000 to 10000 nM	Oc1nc(OCc2ccc(C(F)(F)F)cc2)nc2cnccc12 [Example 170, 2-{[4-(trifluoromethyl)phenyl]methoxy}pyrido[3,4-d]pyrimidin-4-ol]
100 to 1000 nM	≤ 100 nM	Oc1nc(OCc2ccccc2Cl)nc2cnccc12 [Example 171, 2-[(2-chlorophenyl)methoxy]pyrido[3,4-d]pyrimidin-4-ol]
1000 to 10000 nM	1000 to 10000 nM	Oc1nc(OCc2c(Cl)cccc2Cl)nc2cnccc12 [Example 172, 2-[(2,6-dichlorophenyl)methoxy]pyrido[3,4-d]pyrimidin-4-ol]
1000 to 10000 nM	≤ 100 nM	Oc1nc(OCc2cccc(Cl)c2Cl)nc2cnccc12 [Example 173, 2-[(2,3-dichlorophenyl)methoxy]pyrido[3,4-d]pyrimidin-4-ol]
≤ 100 nM	100 to 1000 nM	Oc1nc(OCCc2ccc(Cl)cc2)nc2cnccc12 [Example 174, 2-[2-(4-chlorophenyl)ethoxy]pyrido[3,4-d]pyrimidin-4-ol]
1000 to 10000 nM	≤ 100 nM	Oc1nc(OCCc2ccc(Cl)c(Cl)c2)nc2cnccc12 [Example 175, 2-[2-(3,4-dichlorophenyl)ethoxy]pyrido[3,4-d]pyrimidin-4-ol]
100 to 1000 nM	≤ 100 nM	Oc1nc(OC(c2ccccc2)C(F)(F)F)nc2cnccc12 (stereo not drawn) [Example 176, 2-(2,2,2-trifluoro-1-phenylethoxy)pyrido[3,4-d]pyrimidin-4-ol]
